Test results reported in article PMC11851776, “Structural Basis for the Catalysis and Substrate Specificity of a LarA Racemase with a Broad Substrate Spectrum” (ACS Catalysis, 2025).
Blank lines part the entries; values can stand above or below the molecule they belong to.

Key:
LarAIp [1] = molecular target: T1, LarAIp (Isosphaera pallida, UniProt E8QWZ4); test: X-ray crystal structure, […] Å; type: binding; details: naturally bound in enzyme as purified; active site with NPN tethered to Lys183
T1 construct: gene Isop_3476; full length, C-terminal Strep-II tag, co-expressed with LarB, LarC and LarE in Lactococcus lactis NZ3900 (structures); apoprotein from E. coli (pBADHisA) plus in vitro-synthesized NPN for substrate assays; 47403 Da after loss of Met1; monomer

LarAIp [2] = molecular target: T1, LarAIp; test: X-ray crystal structure, […] Å; type: binding; details: ligand exchange at ~3 mM, 55 °C 15 min, then 4 °C; active site
LarAIp [3] = molecular target: T1, LarAIp; test: X-ray crystal structure, […] Å; type: binding; details: ligand exchange with ~3 mM D/L-2HB at 55 °C 15 min, then 4 °C; active site
LarAIp [4] = molecular target: T1, LarAIp; test: racemization assay, D-lactate formed measured by D/L-lactate kit; type: biochemical; details: turnover only; conversion to D-lactate also seen in crystal
LarAIp [5] = molecular target: T1, LarAIp; test: competitive-substrate racemization assay, capillary electrophoresis; type: biochemical; details: turnover only (relative kcat/KM); 100 mM Tris-HCl pH 8.0, 30 °C, 1 μM NPN

T1 sequence (E8QWZ4 entry or part of it): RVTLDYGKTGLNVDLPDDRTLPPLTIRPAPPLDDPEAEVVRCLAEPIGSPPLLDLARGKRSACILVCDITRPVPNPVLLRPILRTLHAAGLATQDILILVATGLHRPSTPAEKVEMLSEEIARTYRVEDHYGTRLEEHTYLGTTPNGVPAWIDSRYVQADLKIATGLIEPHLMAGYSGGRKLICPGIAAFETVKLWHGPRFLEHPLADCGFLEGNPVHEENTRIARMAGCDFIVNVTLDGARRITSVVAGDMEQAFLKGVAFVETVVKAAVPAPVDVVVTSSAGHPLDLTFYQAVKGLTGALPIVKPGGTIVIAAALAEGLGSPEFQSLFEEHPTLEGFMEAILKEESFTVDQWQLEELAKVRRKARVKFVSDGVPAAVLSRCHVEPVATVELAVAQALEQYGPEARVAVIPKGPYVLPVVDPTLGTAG

SMILES: C[C@@H](O)C(=O)O [D-lactate]
X-ray crystal structure, 1.74 Å (LarAIp [1]): 9EIA (LarAIp with bound D-lactate as purified)

X-ray crystal structure, 1.65 Å (LarAIp [2]): 9EIF (LarAIp with bound D-2HIV)
SMILES: CC(C)[C@@H](O)C(=O)O [D-2HIV]

X-ray crystal structure, 1.38 Å (LarAIp [3]): 9EID (LarAIp with bound D-2HB)
SMILES: CC[C@@H](O)C(=O)O [D-2HB]

SMILES: C[C@H](O)C(=O)O [L-lactate]
racemization assay, D-lactate formed measured by D/L-lactate kit (LarAIp [4]): confirmed the conversion of three L-α-hydroxyacids into the corresponding D-enantiomers

SMILES: O=C(O)[C@@H](O)CO [L-glycerate]
competitive-substrate racemization assay, capillary electrophoresis (LarAIp [5]): highest kcat/KM values for L-lactate and 2-hydroxybutyrate (2HB), followed by L-glycerate
